Key:
[1] = molecular target: Transient receptor potential cation channel subfamily M member 8 (Homo sapiens, UniProt Q7Z2W7); experiment: Antagonist activity against human recombinant TRPM8 expressed in CHO T-rex cells assessed as inhibition of WS12-induced calcium response pre-incubated for 20 mins before WS12 addition; format: cell-based
[2] = Lipophilicity, log D of the compound; format: physicochemical; details: octanol/water
[3] = Intrinsic clearance in human liver microsomes; format: ADME; details: read-out: CLH
[4] = test system: Hepatocyte; experiment: Intrinsic clearance in human hepatocytes assessed per million cells; format: ADME, cell-based
[5] = test system: Liver microsome; experiment: Intrinsic clearance in rat liver microsomes; format: ADME
[6] = molecular target: CYP3A4 (Homo sapiens, UniProt P08684); experiment: Inhibition of CYP3A4 (unknown origin) at 3 uM; format: ADME
Chain of CYP3A4 (P08684 whole entry): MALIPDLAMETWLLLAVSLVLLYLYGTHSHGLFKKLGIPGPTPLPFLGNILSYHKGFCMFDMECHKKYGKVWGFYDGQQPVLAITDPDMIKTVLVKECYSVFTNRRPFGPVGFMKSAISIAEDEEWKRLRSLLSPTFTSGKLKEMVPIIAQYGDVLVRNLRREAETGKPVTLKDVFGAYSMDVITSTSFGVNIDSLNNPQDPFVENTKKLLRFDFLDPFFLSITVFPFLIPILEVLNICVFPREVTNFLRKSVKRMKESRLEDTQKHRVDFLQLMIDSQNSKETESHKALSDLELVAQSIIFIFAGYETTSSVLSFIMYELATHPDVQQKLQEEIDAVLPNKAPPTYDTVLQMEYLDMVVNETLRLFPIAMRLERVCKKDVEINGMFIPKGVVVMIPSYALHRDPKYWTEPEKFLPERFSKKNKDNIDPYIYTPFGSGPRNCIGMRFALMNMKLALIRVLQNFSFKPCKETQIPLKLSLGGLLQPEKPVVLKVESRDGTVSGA

[7] = molecular target: CYP2D6 (Homo sapiens, UniProt P10635); experiment: Inhibition of CYP2D6 (unknown origin) at 3 uM; format: ADME
Chain of CYP2D6 (P10635 whole entry): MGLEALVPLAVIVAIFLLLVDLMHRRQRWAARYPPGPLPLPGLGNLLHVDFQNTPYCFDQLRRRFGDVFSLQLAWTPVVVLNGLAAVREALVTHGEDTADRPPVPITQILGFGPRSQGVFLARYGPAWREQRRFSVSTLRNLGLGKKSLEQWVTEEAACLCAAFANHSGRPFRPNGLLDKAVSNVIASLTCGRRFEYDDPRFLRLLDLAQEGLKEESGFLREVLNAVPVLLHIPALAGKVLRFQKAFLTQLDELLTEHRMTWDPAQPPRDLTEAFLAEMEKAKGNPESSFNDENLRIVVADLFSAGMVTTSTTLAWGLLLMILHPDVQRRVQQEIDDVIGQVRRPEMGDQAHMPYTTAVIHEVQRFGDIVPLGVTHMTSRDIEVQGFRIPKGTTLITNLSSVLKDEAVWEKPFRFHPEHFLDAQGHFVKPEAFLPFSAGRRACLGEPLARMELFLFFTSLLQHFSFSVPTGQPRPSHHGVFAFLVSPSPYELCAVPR

[8] = molecular target: T1, CYP1A2 (Homo sapiens, UniProt P05177); experiment: Inhibition of CYP1A2 (unknown origin) at 3 uM; format: ADME
T1 sequence (P05177 whole entry): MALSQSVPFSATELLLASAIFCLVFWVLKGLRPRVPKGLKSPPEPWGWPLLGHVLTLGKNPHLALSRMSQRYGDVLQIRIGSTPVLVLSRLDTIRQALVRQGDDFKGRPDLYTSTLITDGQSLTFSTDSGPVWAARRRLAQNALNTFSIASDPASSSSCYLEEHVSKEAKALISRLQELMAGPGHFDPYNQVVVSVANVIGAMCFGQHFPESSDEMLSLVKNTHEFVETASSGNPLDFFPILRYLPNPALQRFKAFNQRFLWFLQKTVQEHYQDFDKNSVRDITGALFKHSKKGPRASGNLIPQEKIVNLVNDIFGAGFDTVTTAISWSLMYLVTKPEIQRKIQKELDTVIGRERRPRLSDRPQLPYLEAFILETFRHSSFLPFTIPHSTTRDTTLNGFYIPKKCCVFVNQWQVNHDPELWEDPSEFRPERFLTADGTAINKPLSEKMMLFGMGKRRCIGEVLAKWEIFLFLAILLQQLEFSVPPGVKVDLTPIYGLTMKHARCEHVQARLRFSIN

[9] = molecular target: T2, CYP2C8 (Homo sapiens, UniProt P10632); experiment: Inhibition of CYP2C8 (unknown origin) at 3 uM; format: ADME
T2 sequence (P10632 whole entry): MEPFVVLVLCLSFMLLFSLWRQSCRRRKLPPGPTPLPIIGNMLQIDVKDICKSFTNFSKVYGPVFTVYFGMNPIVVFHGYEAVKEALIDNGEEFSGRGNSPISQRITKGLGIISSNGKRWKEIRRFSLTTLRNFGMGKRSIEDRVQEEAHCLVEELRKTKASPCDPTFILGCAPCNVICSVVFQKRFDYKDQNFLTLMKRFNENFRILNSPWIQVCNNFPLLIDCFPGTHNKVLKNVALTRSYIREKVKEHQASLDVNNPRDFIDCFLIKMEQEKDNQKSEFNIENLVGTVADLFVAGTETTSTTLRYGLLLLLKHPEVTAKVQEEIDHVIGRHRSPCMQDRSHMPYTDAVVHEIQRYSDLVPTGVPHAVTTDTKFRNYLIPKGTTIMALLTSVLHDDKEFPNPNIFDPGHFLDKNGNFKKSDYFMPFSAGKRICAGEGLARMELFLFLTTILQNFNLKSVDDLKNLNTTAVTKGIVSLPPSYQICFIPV

[10] = molecular target: CYP2C9 (Homo sapiens, UniProt P11712); experiment: Inhibition of CYP2C9 (unknown origin) at 3 uM; format: ADME
Chain of CYP2C9 (P11712 whole entry): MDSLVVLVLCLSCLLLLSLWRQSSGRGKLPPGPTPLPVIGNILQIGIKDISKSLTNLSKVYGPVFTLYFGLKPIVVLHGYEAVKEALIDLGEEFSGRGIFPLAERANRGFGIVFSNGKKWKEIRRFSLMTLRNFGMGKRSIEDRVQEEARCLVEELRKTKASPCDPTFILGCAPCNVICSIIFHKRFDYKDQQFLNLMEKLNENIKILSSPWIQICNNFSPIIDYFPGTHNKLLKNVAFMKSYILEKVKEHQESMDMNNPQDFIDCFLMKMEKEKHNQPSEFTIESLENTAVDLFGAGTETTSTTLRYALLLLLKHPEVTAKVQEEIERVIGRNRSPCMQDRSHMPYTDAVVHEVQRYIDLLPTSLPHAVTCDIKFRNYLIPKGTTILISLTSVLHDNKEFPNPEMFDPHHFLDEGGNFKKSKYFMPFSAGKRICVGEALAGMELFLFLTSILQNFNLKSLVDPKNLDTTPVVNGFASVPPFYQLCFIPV

[11] = molecular target: Voltage-gated inwardly rectifying potassium channel KCNH2 (Homo sapiens, UniProt Q12809); experiment: Inhibition of dofetilide binding to human ERG
Chain of Voltage-gated inwardly rectifying potassium channel KCNH2 (Q12809 whole entry): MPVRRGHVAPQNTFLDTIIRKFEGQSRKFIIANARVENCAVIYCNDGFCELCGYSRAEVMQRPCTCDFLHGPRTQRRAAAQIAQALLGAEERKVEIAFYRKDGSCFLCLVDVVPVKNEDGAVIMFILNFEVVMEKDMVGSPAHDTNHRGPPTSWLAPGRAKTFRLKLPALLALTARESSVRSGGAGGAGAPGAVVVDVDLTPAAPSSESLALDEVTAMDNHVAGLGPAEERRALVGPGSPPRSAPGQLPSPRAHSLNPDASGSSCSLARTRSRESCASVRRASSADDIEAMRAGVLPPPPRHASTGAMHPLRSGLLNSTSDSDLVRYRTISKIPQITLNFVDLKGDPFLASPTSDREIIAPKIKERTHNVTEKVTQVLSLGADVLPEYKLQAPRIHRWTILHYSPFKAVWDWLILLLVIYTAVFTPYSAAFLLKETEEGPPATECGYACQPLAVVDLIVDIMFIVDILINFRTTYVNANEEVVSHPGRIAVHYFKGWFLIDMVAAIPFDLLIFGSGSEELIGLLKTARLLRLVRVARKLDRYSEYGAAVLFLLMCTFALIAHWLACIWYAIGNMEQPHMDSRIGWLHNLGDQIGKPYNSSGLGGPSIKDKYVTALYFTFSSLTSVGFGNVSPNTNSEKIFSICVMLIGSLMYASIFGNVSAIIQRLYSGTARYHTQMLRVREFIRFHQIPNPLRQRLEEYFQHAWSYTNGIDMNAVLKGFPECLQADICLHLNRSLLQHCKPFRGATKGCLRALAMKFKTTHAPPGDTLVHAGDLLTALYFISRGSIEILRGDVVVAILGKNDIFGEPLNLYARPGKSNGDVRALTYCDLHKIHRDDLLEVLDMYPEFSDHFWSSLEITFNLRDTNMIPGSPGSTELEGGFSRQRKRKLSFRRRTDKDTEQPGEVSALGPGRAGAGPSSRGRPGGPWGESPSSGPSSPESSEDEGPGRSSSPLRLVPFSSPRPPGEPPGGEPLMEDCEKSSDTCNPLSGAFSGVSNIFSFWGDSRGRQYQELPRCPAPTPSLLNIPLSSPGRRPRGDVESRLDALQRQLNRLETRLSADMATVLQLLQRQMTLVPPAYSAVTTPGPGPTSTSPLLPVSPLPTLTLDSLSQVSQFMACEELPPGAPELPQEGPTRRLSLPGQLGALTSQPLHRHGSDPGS

Chain of Transient receptor potential cation channel subfamily M member 8 (Q7Z2W7 whole entry): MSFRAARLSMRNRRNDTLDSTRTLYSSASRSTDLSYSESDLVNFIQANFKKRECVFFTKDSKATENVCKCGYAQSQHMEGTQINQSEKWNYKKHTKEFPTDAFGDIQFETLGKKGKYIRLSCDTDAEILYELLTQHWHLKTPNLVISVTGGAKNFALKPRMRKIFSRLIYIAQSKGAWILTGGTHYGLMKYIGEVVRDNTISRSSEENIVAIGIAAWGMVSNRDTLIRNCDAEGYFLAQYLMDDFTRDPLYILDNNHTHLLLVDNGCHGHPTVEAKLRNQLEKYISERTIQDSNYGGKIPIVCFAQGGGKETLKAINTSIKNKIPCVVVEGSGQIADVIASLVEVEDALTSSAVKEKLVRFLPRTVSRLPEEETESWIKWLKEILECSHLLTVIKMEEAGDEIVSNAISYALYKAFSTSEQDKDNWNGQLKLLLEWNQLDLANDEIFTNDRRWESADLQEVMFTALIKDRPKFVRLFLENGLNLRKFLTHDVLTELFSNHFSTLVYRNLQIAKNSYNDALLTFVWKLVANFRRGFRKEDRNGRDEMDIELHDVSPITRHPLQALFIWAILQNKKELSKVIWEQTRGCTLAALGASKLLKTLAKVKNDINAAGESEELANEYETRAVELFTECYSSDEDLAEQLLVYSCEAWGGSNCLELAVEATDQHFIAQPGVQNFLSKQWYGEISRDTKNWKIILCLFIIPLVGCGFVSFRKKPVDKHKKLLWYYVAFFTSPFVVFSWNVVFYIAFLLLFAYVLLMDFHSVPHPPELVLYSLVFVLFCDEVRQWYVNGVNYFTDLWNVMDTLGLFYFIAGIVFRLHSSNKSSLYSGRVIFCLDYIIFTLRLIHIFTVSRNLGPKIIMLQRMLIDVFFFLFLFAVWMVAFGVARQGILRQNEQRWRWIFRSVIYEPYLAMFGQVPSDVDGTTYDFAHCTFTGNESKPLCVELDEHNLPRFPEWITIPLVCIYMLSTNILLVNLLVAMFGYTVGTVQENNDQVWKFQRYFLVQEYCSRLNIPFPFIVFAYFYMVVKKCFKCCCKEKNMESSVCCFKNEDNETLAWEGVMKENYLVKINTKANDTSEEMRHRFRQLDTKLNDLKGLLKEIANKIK

SMILES | IC50 [1] | microsomal CLint [3] | microsomal CLint [5] | further results
C[C@H](c1ccc(F)cc1)N(Cc1cccc(C(=O)O)c1)C(=O)Cc1cccc(Cl)c1 | > 10000 nM | – | – | –
C[C@H](c1ccc(F)cc1)N(Cc1cccc(CC(=O)O)c1)C(=O)c1cnc2ccccc2c1 | > 3250 nM | – | – | –
COc1ccc(C(C)N(Cc2cccc(C(=O)O)c2)C(=O)c2cnc3ccccc3c2)cc1 (stereo not given) | 6100 nM | – | – | –
C[C@H](c1ccc(F)cc1)N(Cc1cccc(C(=O)O)c1)C(=O)c1cccc(-c2ccccc2)c1 | 837 nM | – | – | –
CC(c1ccc(F)cc1)N(Cc1cccc(C(=O)O)c1)C(=O)c1ccc2c(c1)CCO2 (racemic) | 3620 nM | – | – | –
C[C@H](c1ccc(F)cc1)N(Cc1cccc(C(=O)O)c1)C(=O)c1cc2ccccc2s1 | 145 nM | – | – | –
C[C@H](c1ccc(F)cc1)N(Cc1cccc(C(=O)O)c1)C(=O)c1cc2ccccc2nn1 | 340 nM | < 8 µL/min/mg | 76 µL/min/mg | –
CC[C@H](c1ccc(F)cc1)N(Cc1cccc(C(=O)O)c1)C(=O)c1cnc2ccccc2c1 | 202 nM | < 8 µL/min/mg | < 14 µL/min/mg | logD [2]: 1.3; hepatocyte intrinsic clearance [4]: 28 µL/min/million cells; Ki [11]: > 15200 nM
C[C@H](c1ccc(F)cc1)N(Cc1cccc(C(=O)O)n1)C(=O)c1cnc2ccccc2c1 | 1160 nM | – | – | –

The next lines start with results.

IC50 [1] | microsomal CLint [3] | microsomal CLint [5] | SMILES | further results
62 nM | 10 µL/min/mg | 102 µL/min/mg | C[C@H](c1cccc(Cl)c1)N(Cc1cccc(C(=O)O)c1)C(=O)c1cnc2ccccc2c1 | logD [2]: 1.5; hepatocyte intrinsic clearance [4]: 45 µL/min/million cells; inhibition at 3 µM [6]: 0%; inhibition at 3 µM [7]: 0%; inhibition at 3 µM [8]: 0%; inhibition at 3 µM [9]: 0%; inhibition at 3 µM [10]: 0%
951 nM | – | – | C[C@H](c1ccc(F)cc1)N(Cc1cccc(C(=O)O)c1)C(=O)c1cc2cc[nH]c2cn1 | –
60 nM | 11 µL/min/mg | 31 µL/min/mg | C[C@H](c1ccc(F)cc1F)N(Cc1cccc(C(=O)O)c1)C(=O)c1cc2ccccc2cn1 | logD [2]: 1.1; hepatocyte intrinsic clearance [4]: < 2 µL/min/million cells; inhibition at 3 µM [6]: 0%; inhibition at 3 µM [7]: 0%; inhibition at 3 µM [8]: 0%; inhibition at 3 µM [9]: 0%; inhibition at 3 µM [10]: 0%
1610 nM | – | – | C[C@H](c1ccc(F)cc1)N(Cc1cccc(-c2nn[nH]n2)c1)C(=O)c1cnc2ccccc2c1 | –
288 nM | – | – | C[C@H](c1ccc(F)cc1F)N(Cc1cccc(C(=O)O)c1)C(=O)c1cnc2ccccc2c1 | –
90 nM | 16 µL/min/mg | 166 µL/min/mg | C[C@H](c1ccc(F)cc1)N(Cc1cccc(C(=O)O)c1)C(=O)c1cc2ccccc2cn1 | logD [2]: 1.1; hepatocyte intrinsic clearance [4]: 21 µL/min/million cells; Ki [11]: > 9180 nM
